Reference: paper PMC4065883 (European journal of medicinal chemistry, 2014)
Entries after “also recorded” stand apart in the source; their conditions may differ. Like-named read-outs stand apart in the source and are kept apart here.

How the values were obtained:
[1] = test system: MC65 cells; conditions: MTT
[2] = Hydroxyl radical scavenging, BMPO spin trap EPR; conditions: compound 1 mM, BMPO 10 mM
[3] = Peroxyl; conditions: compound 1 mM, BMPO 10 mM
[4] = molecular target: T1, Acetylcholinesterase from bovine erythrocytes (Bos taurus, UniProt P23795); type: biochemical
T1 sequence (P23795 31-614 isoform P23795-2 limits assumed): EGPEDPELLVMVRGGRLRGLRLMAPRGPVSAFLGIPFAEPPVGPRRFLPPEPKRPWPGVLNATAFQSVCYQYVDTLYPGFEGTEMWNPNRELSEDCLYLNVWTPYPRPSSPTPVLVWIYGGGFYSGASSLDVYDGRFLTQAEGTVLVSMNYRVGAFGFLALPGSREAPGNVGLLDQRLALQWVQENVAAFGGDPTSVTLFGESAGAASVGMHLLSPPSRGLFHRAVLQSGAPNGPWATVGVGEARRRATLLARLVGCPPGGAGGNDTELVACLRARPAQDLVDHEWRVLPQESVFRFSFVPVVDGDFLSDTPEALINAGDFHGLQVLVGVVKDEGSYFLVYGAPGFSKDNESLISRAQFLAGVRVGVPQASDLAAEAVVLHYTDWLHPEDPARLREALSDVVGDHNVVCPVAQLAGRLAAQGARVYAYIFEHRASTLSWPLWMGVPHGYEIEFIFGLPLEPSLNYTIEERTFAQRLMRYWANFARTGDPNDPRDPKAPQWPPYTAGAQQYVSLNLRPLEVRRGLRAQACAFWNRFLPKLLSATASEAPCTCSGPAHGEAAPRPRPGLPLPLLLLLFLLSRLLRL

[5] = ROS scavenging activity, radical type not specified, BMPO spin trap EPR; conditions: compound 1 mM, BMPO 10 mM

Compound: Cl.Nc1c2c(nc3ccccc13)CCCC2 [1/HCl, reference compound]
- protection against Aβ-induced cytotoxicity (in words) [1]: do not exhibit any protection
- hydroxyl radical scavenging activity (in words) [2]: limited
- peroxyl / superoxide radical scavenging activity (in words) [3]: limited

Compound: CC1(C)C=C(CNc2c3c(nc4ccccc24)CCCC3)CC(C)(C)N1[O] [compound 5, 2,2,6,6-Tetramethyl-4-[(1,2,3,4-tetrahydroacridin-9-yl)aminomethyl]-1,2,3,6-tetrahydropyridin-1-yloxyl Radical]
- AChEI activity (in words) [4]: less AChEI activity than compound 1b
- protection against Aβ-induced cytotoxicity (in words) [1]: protection against Aβ-induced cytotoxicity
- peroxyl / superoxide radical scavenging activity (in words) [3]: excellent
- ROS scavenging activity (in words) [5]: remarkable ROS scavenging activity

Compound: CC1(C)Cc2nc3ccccc3c(N)c2C(C)(C)N1[O] [17b, 10-amino-1,1,3,3-tetramethyl-3,4-dihydrobenzo[b][1,6]naphthyridin-2(1H)-yloxyl Radical]
- protection against Aβ-induced cytotoxicity (in words) [1]: notable protective activity
- hydroxyl radical scavenging activity (in words) [2]: superior
- peroxyl / superoxide radical scavenging activity (in words) [3]: excellent

Compound: COc1ccc(CN2CCN(c3c4c(nc5ccccc35)CCCC4)CC2)c(OC)c1OC [compound 13, 9-[4-(2,3,4-trimethoxybenzyl)piperazin-1-yl]-1,2,3,4-tetrahydroacridine]
- protection against Aβ-induced cytotoxicity (in words) [1]: notable protective activity
- peroxyl / superoxide radical scavenging activity (in words) [3]: lack peroxyl radical scavenging activity
- ROS scavenging activity (in words) [5]: appreciable scavenging activity; also recorded: notable antioxidant activity

Compound: CN1CCc2nc3ccccc3c(N)c2C1 [22b, 2-methyl-1,2,3,4-tetrahydrobenzo[b][1,6]naphthyridin-10-amine]
- protection against Aβ-induced cytotoxicity (in words) [1]: notable protective activity
- peroxyl / superoxide radical scavenging activity (in words) [3]: lack peroxyl radical scavenging activity

Compound: CC1(C)Cc2nc3ccccc3c(N)c2C(C)(C)N1 [16b, 1,1,3,3-tetramethyl-1,2,3,4-tetrahydrobenzo[b][1,6]naphthyridin-10-amine]
- AChEI activity (in words) [4]: inactive
- protection against Aβ-induced cytotoxicity (in words) [1]: notable protective activity; also recorded: lower protective activity
- peroxyl / superoxide radical scavenging activity (in words) [3]: lack peroxyl radical scavenging activity

Compound: CC1(C)c2nc3ccccc3c(N)c2C(C)(C)N1[O] [20b, 9-amino-1,1,3,3-tetramethyl-1H-pyrrolo[3,4-b]quinolin-2(3H)-yloxyl Radical]
- protection against Aβ-induced cytotoxicity (in words) [1]: notable protective activity
- peroxyl / superoxide radical scavenging activity (in words) [3]: lack peroxyl radical scavenging activity
- peroxyl / superoxide radical scavenging activity (in words) ([3]; listed as 20): excellent

Compound: c1ccc2c(N3CCNCC3)c3c(nc2c1)CCCC3 [compound 7, 9-(Piperazin-1-yl)-1,2,3,4-tetrahydroacridine]
- protection against Aβ-induced cytotoxicity (in words) [1]: do not provide any significant level of cell protection
- hydroxyl radical scavenging activity (in words) [2]: limited
- peroxyl / superoxide radical scavenging activity (in words) [3]: limited; also recorded: lack peroxyl radical scavenging activity

Compound: CC1(C)NC(C)(C)c2c1nc1ccccc1c2N [19b, 1,1,3,3-tetramethyl-2,3-dihydro-1H-pyrrolo[3,4-b]quinolin-9-amine]
- protection against Aβ-induced cytotoxicity (in words) [1]: notable protective activity; also recorded: lower protective activity

Compound: Nc1c2c(nc3ccccc13)CCCC2 [1b, 9-amino-1,2,3,4-tetrahydroacridine, reference compound]
- hydroxyl radical scavenging activity (in words) [2]: limited
- peroxyl / superoxide radical scavenging activity (in words) [3]: limited; also recorded: lack peroxyl radical scavenging activity
- ROS scavenging activity (in words) [5]: no significant effect on the level of radical detected

Compound: C#CCN1CCN(c2c3c(nc4ccccc24)CCCC3)CC1 [compound 10, 9-[4-(prop-2-yn-1-yl)piperazin-1-yl]-1,2,3,4-tetrahydroacridine]
- AChEI activity (in words) [4]: less AChEI activity than compound 1b
- protection against Aβ-induced cytotoxicity (in words) [1]: do not provide any significant level of cell protection
- hydroxyl radical scavenging activity (in words) [2]: limited
- peroxyl / superoxide radical scavenging activity (in words) [3]: limited; also recorded: lack peroxyl radical scavenging activity

Compound: CC1(C)CC(n2cc(CN3CCN(c4c5c(nc6ccccc46)CCCC5)CC3)nn2)CC(C)(C)N1[O] [compound 12, 2,2,6,6-Tetramethyl-4-{4-[4-(1,2,3,4-tetrahydroacridin-9-yl)piperazin-1-ylmethyl]-1H-1,2,3-triazol-1-yl}piperidin-1-yloxyl Radical]
- AChEI activity (in words) [4]: less AChEI activity than compound 1b; also recorded: active; also recorded: most efficient AChE inhibitors
- protection against Aβ-induced cytotoxicity (in words) [1]: protection against Aβ-induced cytotoxicity; also recorded: remarkable cell protection
- peroxyl / superoxide radical scavenging activity (in words) [3]: excellent
- ROS scavenging activity (in words) [5]: remarkable ROS scavenging activity; also recorded: most efficient

Compound: CN1C(C)(C)Cc2nc3ccccc3c(N)c2C1(C)C [24b, 1,1,2,3,3-pentamethyl-1,2,3,4-tetrahydrobenzo[b][1,6]naphthyridin-10-amine]
- AChEI activity (in words) [4]: limited AChEI activity
- protection against Aβ-induced cytotoxicity (in words) [1]: notable protective activity
- peroxyl / superoxide radical scavenging activity (in words) [3]: lack peroxyl radical scavenging activity

Compound: CC1(C)C=C(CNc2c3c(nc4ccccc24)CCCC3)C(C)(C)N1[O] [4b, 2,2,5,5-Tetramethyl-3-[(1,2,3,4-tetrahydroacridin-9-yl)aminomethyl]-2,5-dihydro-1H-pyrrol-1-yloxyl Radical]
- AChEI activity (in words) [4]: less AChEI activity than compound 1b
- protection against Aβ-induced cytotoxicity (in words) [1]: protection against Aβ-induced cytotoxicity
- peroxyl / superoxide radical scavenging activity (in words) [3]: excellent
- ROS scavenging activity (in words) [5]: remarkable ROS scavenging activity

Compound: CC1(C)C=C(CN2CCN(c3c4c(nc5ccccc35)CCCC4)CC2)C(C)(C)N1[O] [9b, 2,2,5,5-Tetramethyl-3-[4-(1,2,3,4-tetrahydroacridin-9-yl)piperazin-1-ylmethyl]-2,5-dihydro-1H-pyrrol-1-yloxyl Radical]
- AChEI activity (in words) [4]: less AChEI activity than compound 1b
- protection against Aβ-induced cytotoxicity (in words) [1]: protection against Aβ-induced cytotoxicity
- protection against Aβ-induced cytotoxicity (in words) ([1]; listed as 9): remarkable cell protection
- peroxyl / superoxide radical scavenging activity (in words) [3]: excellent
- ROS scavenging activity (in words) [5]: remarkable ROS scavenging activity
